{
  "source": "patent US11433090B2",
  "about": "“mTOR-inhibitor-containing medicine for treating or preventing ophthalmic symptoms, disorders, or diseases, and application thereof” (The Doshisha, priority 2017, dated 2022)",
  "test_system": "cleaved caspase 3",
  "experiment": "Western blot of cleaved caspase 3 after TGF-β2 stimulation in iFECD",
  "assay_type": "cell-based, human",
  "details": "3 pmol mTOR siRNA, then TGF-β2 10 ng/ml 24 h, FIG. 8",
  "description": "The medium was removed from a culture dish in which iFECDs were being cultured, and the cells were supplemented with 1×PBS (−) that was preheated to 37° C., and were washed. This was repeated twice. The cells were supplemented again with 1×PBS (−) and incubated for 3 minutes at 37° C. (5% CO2). After removing the PBS (−), the cells were supplemented with 0.05% Trypsin-EDTA (Nacalai Tesque, 32778-34) and incubated for 5 minutes at 37° C. (5% CO2). The cells were then suspended in a medium, and collected by centrifugation at 1500 rpm for 3 minutes. DMEM (Nacalai Tesque, 08456-36)+10% FBS (Biowest, S1820-500)+1% P/S (Nacalai Tesque, 26252-94) was used as the medium.\niFECDs were seeded on a 12-well plate at a ratio of 1×10^5 cells per well and cultured for 24 hours at 37° C. (5% CO2) (DMEM+10% FBS+1% P/S was used as the medium). After 24 hours, the medium was removed. Rapamycin was added to culture the cells for 24 hours. (DMEM+2% FBS+1% P/S was used as the medium). After 24 hours, the medium was removed. A medium containing 10 ng/ml of Recombinant Human TGF-β2 (Wako, 200-19911) and rapamycin was added to culture the cells for 24 hours. […]\n8 μg of the extracted protein was separated by SDS-PAGE and transferred onto a nitrocellulose membrane. […] The detected band strength was analyzed with a lumino image analyzer LAS-4000 mini (Fuji Film) and ImageQuant™ software (GE Healthcare). […]",
  "data": [
    {"substance": "mTOR siRNA: siRNA against mTOR gene (Ambion, AS026M0L); sense strand SEQ ID NO: 1, antisense strand SEQ ID NO: 2 (sense CAUUCGCAUUCAGUCCAUATT; antisense UAUGGACUGAAUGCGAAUGAT; chemistry not given here)", "values": [
      {"measurement": "activated form of cleaved caspase-3 (about 17 kDa), western blot", "value": "hardly observed"}
    ]}
  ]
}
